From patent publication US8008452B2, “Phosphorylated Ndr kinase” (Novartis Forschungesstiftung, Zweigniederlassung Friedrich …, priority 2002, dated 2011)

Tests used:
[1] = system: GST-NDR1; experiment: Immunodetection of GST-NDR1 phosphorylated on Ser281 or Thr444 after in vitro autophosphorylation; type: biochemical, human; settings: in vitro autophosphorylation with or without Ca2+/S100B
Protocol: (§1) Either 1 microgram GST-NDR1 or HA-NDR1 immunoprecipitated from 100 microgram COS-1 detergent extracts as described above was separated on 10% SDS-PAGE and immunoblotted 2 h at RT or overnight at 4° C. with anti-Ser281P antisera (1:1000) in the presence of 50 microg/ml competing unphosphopeptide or anti-Thr444P purified antibody (1:500). Both antibodies were detected with horseradish peroxidase-conjugated donkey anti-rabbit Ig antibody (Amersham biosciences) and developed by ECL (chemiluminescence; Amersham Pharmacia Biotech).
To reliably quantify the effect of S100B on NDR1 phosphorylation status, rabbit polyclonal antibodies were raised against phosphoepitopes comprising Ser281 or Thr444. GST-NDR1 mutants were treated essentially as described in Example 2 and detected either with anti-NDR1_C-term antiserum or polyclonal antibodies recognising NDR1 phosphorylated on Ser281 or Thr444.

[2] = system: myc-hMOB1; experiment: Co-immunoprecipitation of HA-NDR and myc-hMOB1 from COS-1 cells; type: binding, human; settings: COS-1 cells treated with OA prior to lysis
Protocol: HA-tagged hNDR and myc-tagged hMOB1 were cotransfected in COS1 cells, which were stimulated with okadaic acid or solvent alone. After cell lysis and extract preparation, HA-NDR was immunoprecipitated and co-immunoprecipitated myc-hMOB1 detected or Myc-hMOB1 was immunoprecipitated and co-immunoprecipitated HA-NDR detected.
HA-NDR, wt and mutants, and myc-hMOB1 were cotransfected into COS-1 cells and the cells were treated with OA prior to lysis. HA-NDR was immunoprecipitated and the coimmunoprecipitated myc-hMOB1 detected. […] Furthermore, the two important in vivo phosphorylation sites of NDR, serine-281 in the activation segment and the hydrophobic motif site threonine-444 in the C-terminal regulatory domain were tested, as well as the threonine 74 site in the N-terminal regulatory domain, for their role in NDR-MOB interaction.
HA-NDR N-terminal point mutants and myc-mob1 were co-transfected into COS1 cells which were treated with OA prior to lysis. HA-NDR mutants were immunoprecipitated and coimmunoprecipitated myc-hMOB1 detected.
In this Example, the effect of treatment of COS1 cells with BAPTA-AM on the NDR-MOB Interaction was determined. HA-NDR and myc-MOB1 was cotransfected into COS1 cells and the cells were treated with BAPTA-AM and OA or the solvents alone prior to lysis. HA-NDR was immunoprecipitated and co-immunoprecipitated myc-MOB1 detected. The kinase activity of the HA-NDR immunoprecipitates was measured in a peptide kinase assay.

[3] = biological target: T1, GST-NDR1 (Homo sapiens, UniProt Q15208, T444A); experiment: GST-NDR1 kinase assay (peptide kinase assay); type: biochemical; settings: compared with wild type
T1 construct: made in house; host or cells: E. coli BL21-DE3-pRep4
Protocol: 1 microgram of purified recombinant GST-NDR1 wild type and mutants (without further treatment or autophosphorylated for 2 h in the presence or absence of 1 mM CaCl2 and […] (Sigma)) were assayed in 20 microliter of reaction mixture containing 20 mM Tris-HCl pH 7.5, 10 mM MgCl2, 1 mM DTT, 100 microM [gamma-^32P]ATP (˜0.5 microCi/microliter), and 1 mM NDR1 substrate peptide ([…]; SEQ ID NO:22). After 30 mins incubation at 30° C., reactions were stopped with 50 mM EDTA, and 10 microliters of reaction mixture were spotted onto 2 cm^2 squares of P81 phosphocellulose paper (Whatman). These were subsequently washed for 4×5 min and 3×20 min in 1% phosphoric acid and once in acetone before counting in a liquid scintillation counter. One unit of NDR1 activity was defined as the amount which catalyses the phosphorylation of 1 nmol peptide substrate in 1 min.
Specific activity of GST-NDR1 mutants was also measured by a peptide kinase assay as described above. For this purpose, 1 microgram of purified GST-NDR1 wild type and alanine mutants were left without further treatment or autophosphorylated for 2 h in the presence or absence of 1 mM CaCl2 and […].

[4] = system: HA-NDR1; experiment: Immunodetection of HA-NDR1 phosphorylated on Ser281 or Thr444 from COS-1 cells; type: cell-based, human
Protocol: as §1
To examine this possibility, extracts from transfected COS-1 cells were analyzed with the anti-Ser281P and anti-Thr444P antisera. Protein extracts (10 microg) from transfected COS-1 cells were immunoblotted with 12CA5 to verify similar expression levels of each HA-NDR1 construct. For the analysis of phosphorylation status, 12CA5-immunoprecipitated HA-NDR1 variants (out of 100 microg protein extract) were analysed by immunoblotting with phosphospecific antibodies directed against P-S281 or P-T444.
Protein extracts (10 microg) from mock- and HA-NDR1-transfected COS-1 cells were also immunoblotted with 12CA5 to verify equal expression levels of HA-NDR1 construct. For the analysis of phosphorylation status, 12CA5-immunoprecipitated HA-NDR1 (out of 100 microgram protein extract) was analysed by immunoblotting with phosphospecific antibodies directed against P-S281 or P-T444.

T1 sequence (Q15208 whole entry T444A): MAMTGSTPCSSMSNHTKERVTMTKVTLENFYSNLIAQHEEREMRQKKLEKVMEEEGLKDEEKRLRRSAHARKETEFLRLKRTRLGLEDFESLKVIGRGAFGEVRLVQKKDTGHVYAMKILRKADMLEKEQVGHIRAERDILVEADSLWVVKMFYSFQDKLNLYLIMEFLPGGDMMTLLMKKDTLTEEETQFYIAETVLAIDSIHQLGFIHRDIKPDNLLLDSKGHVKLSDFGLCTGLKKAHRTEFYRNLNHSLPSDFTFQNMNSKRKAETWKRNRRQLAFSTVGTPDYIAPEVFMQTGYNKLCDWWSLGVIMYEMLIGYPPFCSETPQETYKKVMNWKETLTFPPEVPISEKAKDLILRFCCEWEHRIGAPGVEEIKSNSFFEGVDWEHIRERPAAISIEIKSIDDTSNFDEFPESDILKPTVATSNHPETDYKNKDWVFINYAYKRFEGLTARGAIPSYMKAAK

Row | Substance | phosphorylation of GST-NDR1 on Ser281 and Thr444 (phosphospecific antibodies) [1] | interaction of HA-NDR variant with myc-hMOB1 [2] | interaction of HA-NDR variant with myc-hMOB1 ([2]; listed as threonine 74) | decrease of kinase activity of GST-NDR1 mutant [3] | phosphorylation of HA-NDR1 on Ser281 ([4]; immunoblot with anti-P-S281) | phosphorylation of HA-NDR1 on Thr444 ([4]; immunoblot with anti-P-T444)
1 | T74A: NDR1 alanine mutant of phosphorylation residue Thr74; GST fusion or HA-tagged | abolished the S100B-mediated increase of phosphorylation for both Ser281 and Thr444 residues | complete absence of interaction with MOB1 | not tolerated for the interaction with MOB | – | – | –
2 | T444A: NDR1 alanine mutant of phosphorylation residue Thr444; GST fusion or HA-tagged | almost normal autophosphorylation on Ser281 | still interact with MOB1 | – | about 5 fold | – | –
3 | K118A: NDR1 kinase dead mutant, Lys 118 to alanine; GST fusion or HA-tagged | – | still able to interact with hMOB1 | – | – | did not display any phophorylation on this position | became phosphorylated even after abolishing the kinase activity
